The test has as its system corn (Zea mays) plants. Description: Corn plants treated with glyphosate with and without PGA soil drench: dry biomass and leaf area (Experiment 1). Type of test: in vivo. Conditions: 7 days after planting. As to the method:
Corn seeds were sown in standard 10 cm diameter pots in peat-based media (Fafard #2/Sunshine Mix #8 soilless media: 75% Canadian sphagnum peat moss, 20% perlite, 5% vermiculite, trace: dolomitic limestone, wetting agent, silicon). Plants were grown under the following environmental conditions: • Temperature: 30° C. day/23° C. • Relative humidity: 60-70% • Photoperiod: 16 hours light/8 hours dark • Light intensity: 800-1000 μMols/m^2/s Treatments were administered 5 days after planting. In experiment 1, glyphosate was applied at 1%, 10%, and 100% of label rate, with and without PGA (0.137 g/L), as outlined in the table below. In Experiment 2, Bayer All-in-One® herbicide was applied at 10% and 100% of the label rate, with and without PGA (0.137 g/L). In both treatments, control plants received water. In both experiments, herbicide was applied as a 0.5 mL droplet by pipet on the 1st fully expanded leaf; PGA was applied as a 50 mL soil drench. Plants were grown in a completely randomized design for an additional 2 days to allow the treatments to take effect. At 7 days after planting, plants were photographed, and destructively harvested for leaf area and dry biomass.

For `O=C1CC[C@@H](C(=O)O)N1` [PGA, pyroglutamic acid], the “Avg(DryWt)” value (0.137 g/L PGA drench with 1% Label Rate Glyphosate) worked out at 0.10 g; the “Avg(DryWt)” value (0.137 g/L PGA drench with 10% Label Rate Glyphosate) was found to be 0.10 g; the “Avg(DryWt)” value (0.137 g/L PGA drench, 0 Glyphosate) is listed as 0.15 g.

Regarding `O=C(O)CNCP(=O)(O)O` [Glyphosate, glyphosate], the “Avg(DryWt)” value by setting is: (1% Label Rate Glyphosate, 0.0 g/L PGA) 0.12 g; (10% Label Rate Glyphosate, 0.0 g/L PGA) 0.06 g; (100% Label Rate Glyphosate, 0.0 g/L PGA) 0.05 g.

The values above are taken from patent publication US20240373844A1, “PYROGLUTAMIC ACID AS AN HERBICIDE SAFENER AND METHODS OF USE THEREOF” (Verdesian Life Sciences U.S., LLC, priority 2021, published 2024).
